PMC6888386, “Identification of Novel 1,3,5-Triphenylbenzene Derivative Compounds as Inhibitors of Hen Lysozyme Amyloid Fibril Formation” (International Journal of Molecular Sciences, 2019)

Assays:
[1] = target: T1, hen egg white lysozyme (HEWL) (Gallus gallus, UniProt P00698); experiment: ThT fluorescence assay of HEWL amyloid fibril formation; type: biochemical; details: 48 h
T1 construct: Hen egg white lysozyme (HEWL), thioflavin T (ThT), and Congo red (CR) were purchased from Sigma-Aldrich; purchased Sigma-Aldrich (St. Louis, MO, USA); host or cells: hen egg white (per the product name)
Protocol: The inhibition potential of the six compounds was determined using the ThT fluorescence assay to measure the amount of amyloid aggregates after the addition of various concentrations of each compound ranging from 0.03 to 2.6 µM. Aggregation of HEWL was induced by incubating the protein for 48 h at a concentration of 2 mg/mL (140 µM) in 50 mM glycine buffer, pH 2.5, and 57 °C, while stirred gently by magnetic bars (rpm 250), in the absence or presence of 0.03–2.6 µM compounds 1–6. […] The IC50 values of the compounds, corresponding to the concentration at which the inhibitory effect is half of the maximum effect, were determined (Figure 2).
(§1) HEWL concentration was determined by optical absorption at 280 nm (ε280 = 2.65 L·g^−1·cm^−1). HEWL was dissolved to a concentration of 2 mg/mL (140 µM) in 50 mM glycine buffer, pH 2.5, centrifuged for 10 min at 13,000 rpm, then incubated at 57 °C for the specified time lengths in the absence or presence of the indicated concentrations of compounds 1–6, under gentle stirring at 250 rpm by a Teflon magnetic bar.
A mother solution of 2.5 mM ThT was prepared in 10 mM sodium phosphate buffer, 150 mM NaCl, pH 7.0. It was then passed through a 0.45 μm filter paper and stored at 4 °C until it was placed at room temperature immediately before use. At regular time intervals, a 10 µL aliquot of protein solution was mixed with 990 μL of ThT solution in a 10 × 10 mm quartz cuvette and the fluorescence emission spectra were recorded at room temperature using a Cary Eclipse VARIAN fluorescence spectrophotometer (Varian, Mulgrave, Australia) and an excitation wavelength of 440 nm.

[2] = system: caspase-3 activity in SH-SY5Y cells; experiment: Caspase-3 activity after exposure to HEWL aggregates; type: cell-based, human; details: 24 h, 2 µM HEWL aggregates formed in the presence of 0.32 µM compound
Protocol: (§2) We then assessed the cytotoxicity of HEWL aggregates, formed in the absence or presence of compounds 1–6, according to the aggregation protocol described for the ThT experiments. HEWL aggregates were collected by centrifugation, dried under N2, dissolved in cell culture medium, and added to SH-SY5Y human neuroblastoma cells at a concentration of 2 µM (monomer equivalents). The ability of the resulting aggregates to cause cellular dysfunction was assessed by performing the MTT reduction inhibition assay, a widely used indicator of mitochondrial dysfunction. […] Very similar results were obtained by measuring the activity of caspase-3, a well-recognized apoptotic marker. A significant activation of caspase-3 (320 ± 12%, as compared to untreated cells) was observed following treatment for 24 h of SH-SY5Y cells with HEWL aggregates at 2 µM (Figure 7B).
(§3) Authenticated human neuroblastoma SH-SY5Y cells were purchased from American Type Culture Collection (ATCC) (Manassas, VA, USA) and they tested negative for mycoplasma contaminations. SH-SY5Y cells were cultured in Dulbecco’s modified Eagle’s medium (DMEM), F-12 Ham with 25 mM HEPES and NaHCO3 (1:1) supplemented with 10% fetal bovine serum (FBS), 1.0 mM glutamine and 1.0% penicillin and streptomycin solution. Cells were maintained in a 5.0% CO2 humidified atmosphere at 37 °C and grown until 80% confluence for a maximum of 20 passages.
HEWL aggregates were formed in the absence or in the presence of 0.32 µM of compounds 1–6 as described in the previous section and then added to the cell culture medium of SH-SY5Y cells seeded on glass coverslips for 24 h at 2 μM (monomer equivalents). Caspase-3 activity was then analyzed by using FAM FLICA^TM caspases 3 & 7 solution (caspase 3 & 7 FLICA kit FAM-DEVDFMK, Immunochemistry Technologies, LLC, Bloomington, MN, USA). Cell fluorescence was analyzed by the TCS SP8 scanning confocal microscopy system (Leica Microsystems, Mannheim, Germany) equipped with an argon laser source, as previously reported. A series of 1.0 μm thick optical sections (1024 × 1024 pixels) was taken through the cell depth for each sample using a Leica Plan Apo 63 × oil immersion objective for fluorescence measurement at 488 nm. The confocal microscope was set at optimal acquisition conditions, e.g., pinhole diameters, detector gain, and laser powers. Settings were maintained constant for each analysis.

[3] = target: T1, hen egg white lysozyme (HEWL); experiment: Congo red (CR) assay of HEWL aggregation; type: biochemical; details: 0.32 µM compound, HEWL pre-incubated 48 h under aggregating conditions
Protocol: Aliquots of the same samples used for ThT experiments were also used to carry out the CR assays. […] The higher CR absorbance obtained in the presence of HEWL is likely to originate from the presence of protein aggregates that scatter light, whereas the red shift of the peak from 490 to 520–540 nm indicates the presence of β-sheet containing aggregates.
as §1
Since compounds 1–6 have optical absorption spectra partially overlapped to that of CR, all protein samples were centrifuged at 10,000 rpm and the pellets resuspended in 50 mM glycine buffer, pH 2.5, at room temperature. A mother solution of 20 mM CR was prepared in 5 mM sodium phosphate buffer, 150 mM NaCl, pH 7.4, it was then filtered using a center-glass N4 filter and stored at 4 °C, until it was placed at room temperature immediately before use. At different time points during protein aggregation, a 60 μL aliquot of resuspended protein solution was mixed with 440 μL of CR solution. Optical absorption spectra were acquired after 2–3 min equilibration at 25 °C, using a Cecil 7200 UV–visible spectrophotometer (Aquarius, Cambridge, England) and a 1 cm path-length cell.

[4] = system: SH-SY5Y human neuroblastoma cells; experiment: MTT reduction test with HEWL aggregates; type: cell-based; details: 24 h, 2 µM (monomer equivalents) HEWL aggregates formed in the presence of 0.32 µM compound
Protocol: as §2, §3
HEWL samples pre-incubated for 48 h under aggregating conditions in the absence or presence of 0.32 µM compounds 1–6 were centrifuged and the pellets were dried under N2 to remove any compounds and DMSO, dissolved in cell culture medium at a final HEWL concentration of 2 μM (monomer equivalents), and added to SH-SY5Y cells seeded in 96-well plates for 24 h at 37 °C. The cell medium was then removed and the MTT solution (0.5 mg/mL in RPMI) was added to the cells for 4 h. The medium was then aspirated, and the formazan product was solubilized with cell lysis buffer (20% SDS, 50% N, N-dimethylformamide, pH 4.7) for 1 h, as previously described.

[5] = target: T1, hen egg white lysozyme (HEWL); experiment: FTIR spectroscopy of HEWL aggregates; type: biochemical; details: 0.32 µM compound, 48 h, resuspended in D2O
Protocol: New samples of HEWL aggregates with or without compounds 1–6 at a concentration of 0.32 µM were prepared, under the same conditions as those used for ThT and CR experiments, centrifuged after 48 h to collect the aggregates, resuspended at high concentration in D2O and analyzed with FTIR spectroscopy, to determine the effects of the six compounds on the secondary structure of the HEWL aggregates. […] Another peak is present at ca. 1650 cm^−1 attributable to either unordered or α-helical secondary structure.
Samples were incubated for 48 h to promote aggregation as described above in the presence of 0.32 µM compounds 1–6, centrifuged at 13,000× g for 10 min and resuspended in D2O to a final volume of 72.8 μL, to reach a final concentration of 27.8 mg/mL. For each sample, 40 μL was deposited onto an Omni-Cell transmission cell with a 25 μm spacer (Specac, Orpington, UK), and Fourier-transform infrared (FTIR) spectra were recorded using a FTS-40 FTIR spectrometer (Bio-Rad, Hercules, CA, USA) purged with a continuous flow of dry air. Sixty-four interferograms were accumulated in each case at a spectral resolution of 1 cm^−1. The FTIR absorbance spectra were blank-subtracted and baseline-corrected to reveal the amide I region (1600–1700 cm^−1). […]

HEWL = system: HEWL; parameters: method as in PMID 27597412; details: HEWL amyloid fibril formation; read-out: IC50 value of a representative bis(indolyl)phenylmethane; cited from earlier work

T1 sequence (P00698 19-147): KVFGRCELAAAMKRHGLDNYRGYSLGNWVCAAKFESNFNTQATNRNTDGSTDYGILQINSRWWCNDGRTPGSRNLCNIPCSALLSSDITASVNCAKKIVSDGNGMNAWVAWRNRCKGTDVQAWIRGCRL

| Compound | Relative efficacy as inhibitor in terms of IC50 value ([1]; HEWL 140 µM, pH 2.5, 57 °C) | IC50 ([1]; HEWL 2 mg/mL (140 µM), 50 mM glycine buffer pH 2.5, 57 °C, stirring 250 rpm, compound 0.03-2.6 µM, Figure 2, read-out: IC50 of prevention of HEWL amyloid fibril formation) [µM] | Prevention of the apoptotic response (caspase-3 activation) induced by aggregates [2] | CR absorbance relative to that measured in the absence of the compounds [3] | MTT reduction relative to untreated cells [4] [%] | melting point [°C] | Change of secondary structure of HEWL aggregates (amide I, loss of β-sheet) [5] | IC50 (HEWL) [µM] |
| --- | --- | --- | --- | --- | --- | --- | --- | --- |
| Fc1ccc(-c2cc(-c3ccc(F)cc3)cc(-c3ccc(F)cc3)c2)cc1 [Compound 2, 1,3,5-tris(4-fluorophenyl)benzene] | best inhibitor | 0.05 | significantly prevented | lower | 96.2 ± 3.2 | 238 to 240 | most remarkable change |  |
| bis(indolyl)phenylmethane |  |  |  |  |  |  |  | 12.3 ± 1 |
